# Assays:
# [1] = target: T1, CYP1A2 (Homo sapiens, UniProt P05177); test: CYP inhibition; format: in vitro ADME
# T1 sequence (P05177 1-516): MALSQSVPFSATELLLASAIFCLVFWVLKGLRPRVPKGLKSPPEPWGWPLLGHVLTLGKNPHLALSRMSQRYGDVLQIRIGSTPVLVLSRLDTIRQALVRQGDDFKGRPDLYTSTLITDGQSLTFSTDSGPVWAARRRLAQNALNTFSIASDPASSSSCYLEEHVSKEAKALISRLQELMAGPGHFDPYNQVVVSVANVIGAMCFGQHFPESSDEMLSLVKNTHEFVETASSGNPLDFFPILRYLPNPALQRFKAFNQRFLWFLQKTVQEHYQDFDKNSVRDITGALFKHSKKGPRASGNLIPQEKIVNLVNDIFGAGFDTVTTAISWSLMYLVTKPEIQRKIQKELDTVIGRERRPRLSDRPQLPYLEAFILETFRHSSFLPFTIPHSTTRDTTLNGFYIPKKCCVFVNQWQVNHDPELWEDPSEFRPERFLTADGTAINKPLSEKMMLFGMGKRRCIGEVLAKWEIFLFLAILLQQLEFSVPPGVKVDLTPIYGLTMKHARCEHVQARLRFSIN
# Description: Table 6 In vitro liver metabolic stability and activity against CYPs of potent analogues. | column: CYP % Activity at 10 μM / 1A2
# [2] = target: T2, TYRO3 (Homo sapiens, UniProt Q06418); test: Kinome-wide inhibition profiling; format: biochemical
# T2 construct: purchased Reaction Biology Corp
# T2 sequence (Q06418 41-890): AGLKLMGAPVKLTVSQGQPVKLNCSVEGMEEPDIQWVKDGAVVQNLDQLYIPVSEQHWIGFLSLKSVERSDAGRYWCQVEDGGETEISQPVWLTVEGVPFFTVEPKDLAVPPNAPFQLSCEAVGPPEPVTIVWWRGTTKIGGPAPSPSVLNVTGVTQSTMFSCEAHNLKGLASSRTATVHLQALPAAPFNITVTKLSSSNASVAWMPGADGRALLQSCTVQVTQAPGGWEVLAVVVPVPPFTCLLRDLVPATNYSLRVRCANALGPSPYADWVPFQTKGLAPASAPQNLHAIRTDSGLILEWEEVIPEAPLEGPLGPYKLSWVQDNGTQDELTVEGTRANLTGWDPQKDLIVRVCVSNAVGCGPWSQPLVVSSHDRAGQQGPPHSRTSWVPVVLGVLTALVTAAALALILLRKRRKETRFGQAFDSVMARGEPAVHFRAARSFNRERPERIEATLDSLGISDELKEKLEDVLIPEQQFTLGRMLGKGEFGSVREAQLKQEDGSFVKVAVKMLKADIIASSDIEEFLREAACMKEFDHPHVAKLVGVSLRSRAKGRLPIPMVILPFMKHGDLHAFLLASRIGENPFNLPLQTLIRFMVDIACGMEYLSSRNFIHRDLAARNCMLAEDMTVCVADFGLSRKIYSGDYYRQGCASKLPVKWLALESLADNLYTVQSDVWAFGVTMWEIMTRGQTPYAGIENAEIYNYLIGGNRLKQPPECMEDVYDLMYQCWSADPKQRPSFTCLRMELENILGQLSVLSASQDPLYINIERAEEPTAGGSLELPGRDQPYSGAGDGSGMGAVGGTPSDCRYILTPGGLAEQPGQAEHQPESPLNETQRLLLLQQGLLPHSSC
# Description: (§1) In vitro CDK12/cyclinK assays for all compounds and in vitro kinome-wide inhibition profiling of 30d at 10 μM were performed by a CRO company (Reaction Biology Corp., San Diego, CA, USA).
# [3] = target: T3, YANK3 (Homo sapiens, UniProt Q86UX6); test: Kinome-wide inhibition profiling; format: biochemical
# T3 construct: purchased Reaction Biology Corp
# Description: as §1
# [4] = target: T4, PAK4 (Homo sapiens, UniProt O96013); test: Kinome-wide inhibition profiling; format: biochemical
# T4 construct: purchased Reaction Biology Corp
# Description: as §1
# [5] = target: T5, RSK4 (Homo sapiens, UniProt Q9UK32); test: Kinome-wide inhibition profiling; format: biochemical
# T5 construct: purchased Reaction Biology Corp
# T5 sequence (Q9UK32 whole entry): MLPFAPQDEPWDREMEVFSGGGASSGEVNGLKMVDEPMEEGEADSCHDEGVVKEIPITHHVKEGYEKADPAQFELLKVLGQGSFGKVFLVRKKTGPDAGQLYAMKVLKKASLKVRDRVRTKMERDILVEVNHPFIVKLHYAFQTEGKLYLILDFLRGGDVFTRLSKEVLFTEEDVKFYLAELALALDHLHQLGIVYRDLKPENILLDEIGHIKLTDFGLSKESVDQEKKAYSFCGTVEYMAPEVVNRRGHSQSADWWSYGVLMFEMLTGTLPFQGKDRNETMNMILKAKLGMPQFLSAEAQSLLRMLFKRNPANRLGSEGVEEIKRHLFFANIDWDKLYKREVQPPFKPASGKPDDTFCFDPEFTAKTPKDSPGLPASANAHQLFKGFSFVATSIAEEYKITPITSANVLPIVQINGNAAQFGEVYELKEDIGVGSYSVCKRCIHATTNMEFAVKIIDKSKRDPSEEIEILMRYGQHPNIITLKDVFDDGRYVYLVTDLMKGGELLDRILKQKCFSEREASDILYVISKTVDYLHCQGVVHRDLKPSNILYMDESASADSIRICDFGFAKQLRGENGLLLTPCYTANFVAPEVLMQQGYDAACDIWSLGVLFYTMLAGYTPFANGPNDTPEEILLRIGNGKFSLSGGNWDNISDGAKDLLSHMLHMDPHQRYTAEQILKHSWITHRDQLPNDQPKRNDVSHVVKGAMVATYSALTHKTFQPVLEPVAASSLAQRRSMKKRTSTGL
# Description: as §1
# [6] = target: T6, PRKCI (Homo sapiens, UniProt P41743); test: Kinome-wide inhibition profiling; format: biochemical
# T6 construct: purchased Reaction Biology Corp
# Description: as §1
# [7] = target: T7, TBK1 (Homo sapiens, UniProt Q9UHD2); test: Kinome-wide inhibition profiling; format: biochemical
# T7 construct: purchased Reaction Biology Corp
# Description: as §1
# [8] = target: T8, GRK7 (Homo sapiens, UniProt Q8WTQ7); test: Kinome-wide inhibition profiling; format: biochemical
# T8 construct: purchased Reaction Biology Corp
# T8 sequence (Q8WTQ7 whole entry): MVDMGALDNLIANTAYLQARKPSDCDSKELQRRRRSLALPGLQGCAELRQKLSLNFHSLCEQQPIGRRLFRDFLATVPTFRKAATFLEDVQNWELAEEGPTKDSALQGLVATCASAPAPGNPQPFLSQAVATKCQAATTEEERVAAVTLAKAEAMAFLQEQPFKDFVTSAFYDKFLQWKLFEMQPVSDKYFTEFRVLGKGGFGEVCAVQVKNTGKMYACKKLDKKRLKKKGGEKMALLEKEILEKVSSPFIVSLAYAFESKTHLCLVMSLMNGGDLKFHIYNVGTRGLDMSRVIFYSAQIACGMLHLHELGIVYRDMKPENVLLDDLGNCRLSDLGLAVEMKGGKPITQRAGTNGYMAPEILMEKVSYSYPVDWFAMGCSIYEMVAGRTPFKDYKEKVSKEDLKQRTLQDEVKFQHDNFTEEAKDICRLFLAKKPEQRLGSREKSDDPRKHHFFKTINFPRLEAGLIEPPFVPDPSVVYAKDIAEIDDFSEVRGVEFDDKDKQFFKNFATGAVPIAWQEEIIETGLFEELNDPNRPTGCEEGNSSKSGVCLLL
# Description: as §1
# [9] = target: T9, NEK6 (Homo sapiens, UniProt Q9HC98); test: Kinome-wide inhibition profiling; format: biochemical
# T9 construct: purchased Reaction Biology Corp
# Description: as §1
# [10] = target: T10, PHKg1 (Homo sapiens, UniProt Q16816); test: Kinome-wide inhibition profiling; format: biochemical
# T10 construct: purchased Reaction Biology Corp
# T10 sequence (Q16816 whole entry): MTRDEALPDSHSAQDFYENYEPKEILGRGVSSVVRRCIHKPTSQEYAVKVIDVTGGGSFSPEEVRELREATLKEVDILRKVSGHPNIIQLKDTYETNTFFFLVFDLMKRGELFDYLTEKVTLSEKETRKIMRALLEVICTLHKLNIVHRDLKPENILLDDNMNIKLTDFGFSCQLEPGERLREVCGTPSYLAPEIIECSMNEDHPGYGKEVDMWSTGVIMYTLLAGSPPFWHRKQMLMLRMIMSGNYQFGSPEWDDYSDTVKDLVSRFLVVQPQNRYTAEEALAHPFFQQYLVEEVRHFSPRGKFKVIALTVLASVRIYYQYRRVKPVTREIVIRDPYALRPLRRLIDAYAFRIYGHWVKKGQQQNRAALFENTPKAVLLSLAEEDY
# Description: as §1
# [11] = target: T11, ALK (Homo sapiens, UniProt Q9UM73); test: Kinome-wide inhibition profiling; format: biochemical
# T11 construct: purchased Reaction Biology Corp
# Description: as §1
# [12] = target: T12, AurkB (Homo sapiens, UniProt Q96GD4); test: Kinome-wide inhibition profiling; format: biochemical
# T12 construct: purchased Reaction Biology Corp
# Description: as §1
# [13] = target: T13, MEK1 (Homo sapiens, UniProt Q02750); test: Kinome-wide inhibition profiling; format: biochemical
# T13 construct: purchased Reaction Biology Corp
# T13 sequence (Q02750 whole entry): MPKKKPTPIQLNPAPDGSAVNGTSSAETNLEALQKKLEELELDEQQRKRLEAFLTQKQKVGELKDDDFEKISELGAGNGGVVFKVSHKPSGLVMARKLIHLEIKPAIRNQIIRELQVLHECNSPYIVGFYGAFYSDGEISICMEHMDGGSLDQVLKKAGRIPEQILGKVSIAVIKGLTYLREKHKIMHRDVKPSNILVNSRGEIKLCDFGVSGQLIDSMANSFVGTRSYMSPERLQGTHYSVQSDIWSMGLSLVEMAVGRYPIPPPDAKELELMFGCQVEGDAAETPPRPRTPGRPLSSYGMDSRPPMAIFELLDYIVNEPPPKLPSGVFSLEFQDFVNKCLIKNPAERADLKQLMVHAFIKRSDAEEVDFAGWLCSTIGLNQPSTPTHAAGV
# Description: as §1
# [14] = target: T14, PDGFRa (Homo sapiens, UniProt P16234); test: Kinome-wide inhibition profiling; format: biochemical
# T14 construct: purchased Reaction Biology Corp
# T14 sequence (P16234 24-1089): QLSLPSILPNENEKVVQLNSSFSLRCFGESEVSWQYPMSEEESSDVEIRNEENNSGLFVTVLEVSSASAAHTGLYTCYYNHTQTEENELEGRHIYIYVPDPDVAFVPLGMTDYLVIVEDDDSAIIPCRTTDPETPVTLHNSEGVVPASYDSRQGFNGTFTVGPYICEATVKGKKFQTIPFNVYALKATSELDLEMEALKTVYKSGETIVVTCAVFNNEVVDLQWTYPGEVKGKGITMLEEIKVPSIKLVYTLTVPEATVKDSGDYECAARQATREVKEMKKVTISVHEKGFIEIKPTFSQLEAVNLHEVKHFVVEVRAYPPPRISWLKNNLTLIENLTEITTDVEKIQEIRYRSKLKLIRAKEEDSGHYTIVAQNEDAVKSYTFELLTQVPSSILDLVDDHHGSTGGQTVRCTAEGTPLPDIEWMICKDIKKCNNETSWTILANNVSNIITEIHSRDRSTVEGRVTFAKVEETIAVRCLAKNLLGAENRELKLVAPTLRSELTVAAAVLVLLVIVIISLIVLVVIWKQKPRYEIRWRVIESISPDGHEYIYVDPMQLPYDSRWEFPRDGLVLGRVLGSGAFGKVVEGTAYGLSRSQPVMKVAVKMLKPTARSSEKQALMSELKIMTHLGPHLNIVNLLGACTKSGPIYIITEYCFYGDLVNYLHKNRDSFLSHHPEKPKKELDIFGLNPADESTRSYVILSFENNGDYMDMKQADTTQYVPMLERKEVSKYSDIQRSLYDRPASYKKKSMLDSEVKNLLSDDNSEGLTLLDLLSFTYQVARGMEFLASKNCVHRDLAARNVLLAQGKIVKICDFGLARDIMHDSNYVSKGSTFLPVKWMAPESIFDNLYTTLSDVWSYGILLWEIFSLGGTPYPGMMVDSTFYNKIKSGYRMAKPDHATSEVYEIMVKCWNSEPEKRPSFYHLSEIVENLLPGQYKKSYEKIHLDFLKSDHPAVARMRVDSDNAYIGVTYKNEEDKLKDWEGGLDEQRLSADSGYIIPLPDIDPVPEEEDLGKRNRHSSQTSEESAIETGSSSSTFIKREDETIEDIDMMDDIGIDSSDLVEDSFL
# Description: as §1
# [15] = target: T15, ACVR1B (Homo sapiens, UniProt P36896); test: Kinome-wide inhibition profiling; format: biochemical
# T15 construct: purchased Reaction Biology Corp
# T15 sequence (P36896 24-505): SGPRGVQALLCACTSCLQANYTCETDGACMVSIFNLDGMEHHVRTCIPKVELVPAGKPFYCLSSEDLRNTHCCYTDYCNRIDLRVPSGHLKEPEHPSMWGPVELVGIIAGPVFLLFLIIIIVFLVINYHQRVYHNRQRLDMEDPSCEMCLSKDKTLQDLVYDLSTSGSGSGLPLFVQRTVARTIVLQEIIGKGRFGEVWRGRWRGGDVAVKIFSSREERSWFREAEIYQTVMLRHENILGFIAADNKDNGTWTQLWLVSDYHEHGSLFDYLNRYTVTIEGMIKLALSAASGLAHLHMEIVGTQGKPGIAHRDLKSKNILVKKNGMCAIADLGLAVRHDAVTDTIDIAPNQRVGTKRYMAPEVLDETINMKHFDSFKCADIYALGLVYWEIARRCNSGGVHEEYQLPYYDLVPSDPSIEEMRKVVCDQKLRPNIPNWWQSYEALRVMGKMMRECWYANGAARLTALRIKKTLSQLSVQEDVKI
# Description: as §1
# [16] = target: T16, CDK2/cyclinA (Homo sapiens, UniProt P24941); test: Kinome-wide inhibition profiling; format: biochemical
# T16 construct: purchased Reaction Biology Corp
# Description: as §1
# [17] = target: T17, WNK3 (Homo sapiens, UniProt Q9BYP7); test: Kinome-wide inhibition profiling; format: biochemical
# T17 construct: purchased Reaction Biology Corp
# Description: as §1
# [18] = target: T18, Kit (Homo sapiens, UniProt P10721); test: Kinome-wide inhibition profiling; format: biochemical
# T18 construct: purchased Reaction Biology Corp
# Description: as §1
# [19] = tested on: IRS1; test: Western blot of IRS1 in SK-Br3 cells; format: cell-based, human; details: 40 and 200 nM, 24 h
# Description: For Western blot analysis, the following antibodies were used: anti-Pol II CTD (2629S, Cell Signaling Technology, Danvers, MA, USA), anti-Pol II p-CTD (Ser2) (13499S, Cell Signaling Technology), anti-cyclinK (A301-939A-M, Bethyl Laboratories), anti-IRS1 (3407S, Cell Signaling Technology), anti-WNT1 (SC-514531, Santa Cruz Biotechnology, Dallas, TX, USA), anti-β-actin (MAB1501R, Millipore, Burlington, MA, USA), and horseradish peroxidase (HRP)-conjugated secondary antibodies (anti-mouse GTX213112-01; anti-rabbit GTX213110-01) (Genetex, Irvine, CA, USA).
# Cells were lysed with lysis buffer containing 50 mM Tris pH 7.4, 150 mM NaCl, 1 mM EDTA, 1% NP-40, and 0.25% sodium deoxycholate supplemented with protease-inhibitor and phosphatase-inhibitor cocktails. The lysate samples (25 μg/lane) were loaded onto 6–12% sodium dodecyl sulfate polyacrylamide gel and separated by electrophoresis (SDS-PAGE). The proteins were transferred to nitrocellulose membrane (Gelman Sciences, Ann Arbor, MI, USA) by electroblotting. The membranes were blocked with 5% non-fat dry milk (MB Cell, Seoul, Korea), incubated with primary antibodies for overnight at 4 °C. After the washing steps were performed with TBST solution, the membranes were incubated with HRP-conjugated secondary antibodies for 1 h at rt. […]
# [20] = target: CYP2C19 (Homo sapiens, UniProt P33261); test: CYP inhibition; format: in vitro ADME
# Sequence of CYP2C19 (P33261 whole entry): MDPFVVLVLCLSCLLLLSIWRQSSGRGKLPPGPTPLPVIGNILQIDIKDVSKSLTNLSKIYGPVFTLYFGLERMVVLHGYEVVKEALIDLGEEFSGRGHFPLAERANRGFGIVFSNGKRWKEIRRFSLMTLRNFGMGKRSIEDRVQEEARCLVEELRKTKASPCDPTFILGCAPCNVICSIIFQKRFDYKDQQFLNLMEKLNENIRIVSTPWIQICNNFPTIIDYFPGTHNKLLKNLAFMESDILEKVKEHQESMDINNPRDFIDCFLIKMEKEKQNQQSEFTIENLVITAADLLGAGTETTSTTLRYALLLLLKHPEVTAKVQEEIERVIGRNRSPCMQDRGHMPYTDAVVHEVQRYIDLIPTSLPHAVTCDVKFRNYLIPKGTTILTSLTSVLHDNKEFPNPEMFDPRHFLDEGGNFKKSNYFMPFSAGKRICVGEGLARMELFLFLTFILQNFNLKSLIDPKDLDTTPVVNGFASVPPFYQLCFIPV
# Description: Table 6 In vitro liver metabolic stability and activity against CYPs of potent analogues. | column: CYP % Activity at 10 μM / 2C19
# [21] = target: T19, TAOK2 (Homo sapiens, UniProt Q9UL54); parameters: method as in HMS LINCS database; details: 10 μM, ref HMS LINCS database; cited from earlier work
# T19 construct: purchased Reaction Biology Corp
# [22] = target: T20, TAOK3 (Homo sapiens, UniProt Q9H2K8); parameters: method as in HMS LINCS database; details: 10 μM, ref HMS LINCS database; cited from earlier work
# T20 construct: purchased Reaction Biology Corp
# [23] = target: T21, PAK3 (Homo sapiens, UniProt O75914); parameters: method as in HMS LINCS database; details: 10 μM, ref HMS LINCS database; cited from earlier work
# T21 construct: purchased Reaction Biology Corp
# [24] = tested on: CDKL2; parameters: method as in HMS LINCS database; details: 10 μM, ref HMS LINCS database; cited from earlier work
smiles,measurement,setting,value
"CCn1cnc2c(NCc3ccc(-c4ccccn4)nc3)nc(-c3ccc(N)nc3)nc21 [Compound 30d, N-([2,2′-Bipyridin]-5-ylmethyl)-2-(6-aminopyridin-3-yl)-9-ethyl-9H-purin-6-amine]",CYP % Activity at 10 μM 1A2,[1],74.7%
same,remaining activity at 10 µM,[2],22.4%
same,remaining activity at 10 µM,[3],86.6%
same,remaining activity at 10 µM,[4],12.9%
same,remaining activity at 10 µM,[5],54.2%
same,remaining activity at 10 µM,[6],86.1%
same,remaining activity at 10 µM,[7],55%
same,remaining activity at 10 µM,[8],49.7%
same,remaining activity at 10 µM,[9],92.1%
same,remaining activity at 10 µM,[10],16.5%
same,remaining activity at 10 µM,[11],59.7%
same,remaining activity at 10 µM,[12],73%
same,remaining activity at 10 µM,[13],149%
same,remaining activity at 10 µM,[14],52.8%
same,remaining activity at 10 µM,[15],132%
same,inhibition at 10 µM,[16],> 95%
same,remaining activity at 10 µM,[16],1.2%
same,remaining activity at 10 µM,[17],74.5%
same,remaining activity at 10 µM,[18],14.2%
same,IRS1 expression level (Western blot),[19],strong suppression of IRS1 and WNT1
same,CYP % Activity at 10 μM 2C19,[20],68.1%
"CCn1cnc2c(NCc3ccc(-c4ccccn4)nc3)nc(-c3cnc(N)nc3)nc21 [Compound 30e, N-([2,2′-Bipyridin]-5-ylmethyl)-2-(2-aminopyrimidin-5-yl)-9-ethyl-9H-purin-6-amine]",CYP % Activity at 10 μM 1A2,[1],87.6%
same,IRS1 expression level (Western blot),[19],strong suppression of IRS1 and WNT1
same,CYP % Activity at 10 μM 2C19,[20],72.6%
CCc1cnn2c(NCc3ccc[n+]([O-])c3)cc(N3CCCC[C@H]3CCO)nc12 [Dinaciclib],% control,[21],4.8%
same,% control,[22],3.8%
same,% control,[23],7.8%
same,% control,[24],10%
